Holding throughout (assay type): in vivo
Assay [1] relates to Echinochloa crus-galli (ECHCG). Nature of the assay: Post-emergence herbicidal test. The note with it: 1000 g/ha unless otherwise stated, evaluated after 13 days. A digest of the protocol:
(§1)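 Damage score (0–5; 5=81-100%, 1=10-20%, 0=0%) read 13 d after spraying. Spray: acetone/water 50:50 + 0.5% Tween 20, 1000 g/ha unless stated.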

Assay [2] deals with Amaranthus retoflexus (AMARE). Put plainly: Post-emergence herbicidal test. The conditions noted are these: 1000 g/ha unless otherwise stated, evaluated after 13 days. A digest of the protocol: as §1
Assay [3] has as its system Lolium perenne (LOLPE). Put plainly: Post-emergence herbicidal test. The note with it: 1000 g/ha unless otherwise stated, evaluated after 13 days. A digest of the protocol:
as §1

Assay [4] relates to Solanum nigrum (SOLNI). Put plainly: Post-emergence herbicidal test. The conditions noted are these: 1000 g/ha unless otherwise stated, evaluated after 13 days. The method, boiled down: as §1
Assay [5] deals with Setaria faberi (SETFA). Put plainly: Post-emergence herbicidal test. The note with it: 1000 g/ha unless otherwise stated, evaluated after 13 days. The method, boiled down: as §1
Assay [6] concerns Ipomoea hederacea (IPOHE). Nature of the assay: Post-emergence herbicidal test. The conditions noted are these: 1000 g/ha unless otherwise stated, evaluated after 13 days. A digest of the protocol:
as §1

The subject of assay [7] is Echinochloa crus-galli (ECHCG). Nature of the assay: Pre-emergence herbicidal test. The conditions noted are these: 1000 g/ha, evaluated after 13 days.
The subject of assay [8] is Setaria faberi (SETFA). Nature of the assay: Pre-emergence herbicidal test. The conditions noted are these: 1000 g/ha, evaluated after 13 days.
Assay [9] relates to Lolium perenne (LOLPE). Put plainly: Pre-emergence herbicidal test. The conditions noted are these: 1000 g/ha, evaluated after 13 days.
In assay [10] the test system is Solanum nigrum (SOLNI). Put plainly: Pre-emergence herbicidal test. The conditions noted are these: 1000 g/ha, evaluated after 13 days.
Assay [11] has as its system Amaranthus retoflexus (AMARE). Nature of the assay: Pre-emergence herbicidal test. The conditions noted are these: 1000 g/ha, evaluated after 13 days.
Assay [12] deals with Ipomoea hederacea (IPOHE). Nature of the assay: Pre-emergence herbicidal test. The conditions noted are these: 1000 g/ha, evaluated after 13 days.
The test system of assay [13] is Zea mays (ZEAMX). Nature of the assay: Post-emergence herbicidal test. The conditions noted are these: 1000 g/ha unless otherwise stated, evaluated after 13 days. A digest of the protocol:
as §1

The test system of assay [14] is Abutilon theophrasti (ABUTH). Put plainly: Post-emergence herbicidal test. The note with it: 1000 g/ha unless otherwise stated, evaluated after 13 days. The method, boiled down:
as §1

The test system of assay [15] is Zea mays (ZEAMX). Put plainly: Pre-emergence herbicidal test. The note with it: 1000 g/ha, evaluated after 13 days.
In assay [16] the test system is Abutilon theophrasti (ABUTH). Nature of the assay: Pre-emergence herbicidal test. The note with it: 1000 g/ha, evaluated after 13 days.

For the compound `CSc1cccc2c1c(=O)c(C(=O)O)nn2-c1ccc(OC(F)(F)F)cc1` [Compound P1, 5-methylsulfanyl-4-oxo-1-[4-(trifluoromethoxy)phenyl]cinnoline-3-carboxylic acid], in assay [1], the “percentage damage caused to the plant, ECHCG (five-point scale)” value is 0 (0=0%). Further, the “percentage damage caused to the plant, AMARE (five-point scale)” value in assay [2] is given as 0 (0=0%). Besides, the “percentage damage caused to the plant, LOLPE (five-point scale)” value in [3] is reported as 0 (0=0%). In [4], the “percentage damage caused to the plant, SOLNI (five-point scale)” value is 0 (0=0%). The “percentage damage caused to the plant, SETFA (five-point scale)” value in [5] was 0 (0=0%). Moreover, the “percentage damage caused to the plant, IPOHE (five-point scale)” value in [6] is recorded as 0 (0=0%). In addition, in assay [7], the “percentage damage caused to the plant, five-point scale, ECHCG” value is 0 (0=0%). The “percentage damage caused to the plant, five-point scale, SETFA” value in assay [8] was 0 (0=0%). Also, the “percentage damage caused to the plant, five-point scale, LOLPE” value in assay [9] is listed as 0 (0=0%). Besides, the “percentage damage caused to the plant, five-point scale, SOLNI” value in assay [10] is 0 (0=0%). Besides, the “percentage damage caused to the plant, five-point scale, AMARE” value in assay [11] is reported as 0 (0=0%). The “percentage damage caused to the plant, five-point scale, IPOHE” value in assay [12] was 0 (0=0%).
For the compound `CS(=O)(=O)c1cccc2c1c(=O)c(C(=O)O)nn2-c1ccc(OC(F)(F)F)cc1` [Compound P2, 5-methylsulfonyl-4-oxo-1-[4-(trifluoromethoxy)phenyl]cinnoline-3-carboxylic acid], the “percentage damage caused to the plant, ECHCG (five-point scale)” value in assay [1] was 4 (4=61-80%). The “percentage damage caused to the plant, AMARE (five-point scale)” value in [2] is reported as 1 (1=10-20%). Also, in [3], the “percentage damage caused to the plant, LOLPE (five-point scale)” value is 4 (4=61-80%). Also, in [4], the “percentage damage caused to the plant, SOLNI (five-point scale)” value is on record as 4 (4=61-80%). The “percentage damage caused to the plant, SETFA (five-point scale)” value in assay [5] is 4 (4=61-80%). Moreover, the “percentage damage caused to the plant, IPOHE (five-point scale)” value in assay [6] was 2 (2=21-40%). For the same compound, the “percentage damage caused to the plant, five-point scale, ECHCG” value in assay [7] is 5 (5=81-100%). In addition, the “percentage damage caused to the plant, five-point scale, SETFA” value in assay [8] is 5 (5=81-100%). Besides, the “percentage damage caused to the plant, five-point scale, LOLPE” value in assay [9] is given as 5 (5=81-100%). In addition, the “percentage damage caused to the plant, five-point scale, SOLNI” value in assay [10] is 4 (4=61-80%). Further, the “percentage damage caused to the plant, five-point scale, AMARE” value in assay [11] is recorded as 1 (1=10-20%). Besides, the “percentage damage caused to the plant, five-point scale, IPOHE” value in [12] is 1 (1=10-20%).
Turning to `CSc1cccc2c1c(=O)c(C(=O)O)nn2-c1ccc(Cl)cc1` [Compound P4, 1-(4-chlorophenyl)-5-methylsulfanyl-4-oxo-cinnoline-3-carboxylic acid], the “percentage damage caused to the plant, ECHCG (five-point scale)” value in assay [1] is given as 0 (0=0%). Moreover, the “percentage damage caused to the plant, AMARE (five-point scale)” value in assay [2] is 0 (0=0%). In addition, the “percentage damage caused to the plant, LOLPE (five-point scale)” value in [3] is 0 (0=0%). Further, the “percentage damage caused to the plant, SOLNI (five-point scale)” value in [4] is recorded as 0 (0=0%). Besides, the “percentage damage caused to the plant, SETFA (five-point scale)” value in [5] is given as 0 (0=0%). Also, the “percentage damage caused to the plant, IPOHE (five-point scale)” value in [6] was 0 (0=0%). Moreover, in assay [7], the “percentage damage caused to the plant, five-point scale, ECHCG” value was 0 (0=0%). The “percentage damage caused to the plant, five-point scale, SETFA” value in assay [8] is reported as 0 (0=0%). In addition, the “percentage damage caused to the plant, five-point scale, LOLPE” value in [9] is 0 (0=0%). Besides, the “percentage damage caused to the plant, five-point scale, SOLNI” value in assay [10] was 0 (0=0%). In addition, in assay [11], the “percentage damage caused to the plant, five-point scale, AMARE” value is given as 0 (0=0%). In assay [12], the “percentage damage caused to the plant, five-point scale, IPOHE” value is on record as 0 (0=0%).
Turning to `COC(=O)c1nn(-c2ccc(OC(F)(F)F)cc2)c2cccc(S(C)(=O)=O)c2c1=O` [Compound P3, methyl 5-methylsulfonyl-4-oxo-1-[4-(trifluoromethoxy)phenyl]cinnoline-3-carboxylate], in [1], the “percentage damage caused to the plant, ECHCG (five-point scale)” value is on record as 4 (4=61-80%). Moreover, the “percentage damage caused to the plant, AMARE (five-point scale)” value in assay [2] was 1 (1=10-20%). For the same compound, in assay [3], the “percentage damage caused to the plant, LOLPE (five-point scale)” value was 4 (4=61-80%). Further, the “percentage damage caused to the plant, SOLNI (five-point scale)” value in assay [4] is on record as 1 (1=10-20%). In assay [5], the “percentage damage caused to the plant, SETFA (five-point scale)” value is 4 (4=61-80%). In addition, the “percentage damage caused to the plant, IPOHE (five-point scale)” value in assay [6] is 1 (1=10-20%). Further, the “percentage damage caused to the plant, five-point scale, ECHCG” value in assay [7] is 4 (4=61-80%). Moreover, the “percentage damage caused to the plant, five-point scale, SETFA” value in [8] was 4 (4=61-80%). For the same compound, the “percentage damage caused to the plant, five-point scale, LOLPE” value in [9] is recorded as 4 (4=61-80%). Besides, the “percentage damage caused to the plant, five-point scale, SOLNI” value in [10] was 1 (1=10-20%). Besides, the “percentage damage caused to the plant, five-point scale, AMARE” value in assay [11] is reported as 1 (1=10-20%). Besides, the “percentage damage caused to the plant, five-point scale, IPOHE” value in assay [12] is 1 (1=10-20%).
In the case of `CS(=O)(=O)c1cccc2c1c(=O)c(C(=O)O)nn2-c1ccc(Cl)cc1` [Compound P5, 1-(4-chlorophenyl)-5-methylsulfonyl-4-oxo-cinnoline-3-carboxylic acid], the “percentage damage caused to the plant, ECHCG (five-point scale)” value in assay [1] was 4 (4=61-80%). For the same compound, in assay [2], the “percentage damage caused to the plant, AMARE (five-point scale)” value is reported as 1 (1=10-20%). Also, the “percentage damage caused to the plant, LOLPE (five-point scale)” value in assay [3] was 4 (4=61-80%). Further, the “percentage damage caused to the plant, SOLNI (five-point scale)” value in assay [4] is 4 (4=61-80%). Also, in assay [5], the “percentage damage caused to the plant, SETFA (five-point scale)” value is listed as 4 (4=61-80%). For the same compound, the “percentage damage caused to the plant, IPOHE (five-point scale)” value in assay [6] was 1 (1=10-20%). In [7], the “percentage damage caused to the plant, five-point scale, ECHCG” value is recorded as 4 (4=61-80%). Also, the “percentage damage caused to the plant, five-point scale, SETFA” value in assay [8] is listed as 4 (4=61-80%). The “percentage damage caused to the plant, five-point scale, LOLPE” value in assay [9] was 4 (4=61-80%). Also, the “percentage damage caused to the plant, five-point scale, SOLNI” value in assay [10] is recorded as 1 (1=10-20%). Also, the “percentage damage caused to the plant, five-point scale, AMARE” value in assay [11] is 1 (1=10-20%). Moreover, the “percentage damage caused to the plant, five-point scale, IPOHE” value in assay [12] is 1 (1=10-20%).
For `O=C(O)c1nn(-c2ccc(OC(F)(F)F)cc2)c2cccc(S(=O)(=O)CC(F)(F)F)c2c1=O` [Compound P35, 4-oxo-5-(2,2,2-trifluoroethylsulfonyl)-1-[4-(trifluoromethoxy)phenyl]cinnoline-3-carboxylic acid], the “percentage damage caused to the plant, ECHCG (five-point scale)” value in assay [1] is given as 1 (1=10-20%). For the same compound, the “percentage damage caused to the plant, AMARE (five-point scale)” value in assay [2] is on record as 1 (1=10-20%). In assay [13], the “percentage damage caused to the plant, ZEAMX (five-point scale)” value was 1 (1=10-20%). The “percentage damage caused to the plant, ABUTH (five-point scale)” value in assay [14] was 1 (1=10-20%). Further, the “percentage damage caused to the plant, SETFA (five-point scale)” value in assay [5] is 2 (2=21-40%). The “percentage damage caused to the plant, IPOHE (five-point scale)” value in [6] is given as 0 (0=0%). Besides, in [7], the “percentage damage caused to the plant, five-point scale, ECHCG” value is listed as 0 (0=0%). Besides, in assay [8], the “percentage damage caused to the plant, five-point scale, SETFA” value is 0 (0=0%). Further, in assay [15], the “percentage damage caused to the plant, five-point scale, ZEAMX” value is 1 (1=10-20%). Besides, in [11], the “percentage damage caused to the plant, five-point scale, AMARE” value is given as 0 (0=0%). Besides, in [16], the “percentage damage caused to the plant, five-point scale, ABUTH” value was 1 (1=10-20%). Further, the “percentage damage caused to the plant, five-point scale, IPOHE” value in [12] is recorded as 0 (0=0%).
In the case of `CCCCCCCCSC(=O)c1nn(-c2ccc(OC(F)(F)F)cc2)c2cccc(S(C)(=O)=O)c2c1=O` [Compound P90, S-octyl 5-methylsulfonyl-4-oxo-1-[4-(trifluoromethoxy)phenyl]cinnoline-3-carbothioate], the “percentage damage caused to the plant, ECHCG (five-point scale)” value in assay [1] is on record as 3 (3=41-60%). Moreover, the “percentage damage caused to the plant, AMARE (five-point scale)” value in [2] is 0 (0=0%). For the same compound, the “percentage damage caused to the plant, ZEAMX (five-point scale)” value in assay [13] is listed as 1 (1=10-20%). Besides, the “percentage damage caused to the plant, ABUTH (five-point scale)” value in assay [14] is recorded as 0 (0=0%). Moreover, in assay [5], the “percentage damage caused to the plant, SETFA (five-point scale)” value is 4 (4=61-80%). Besides, the “percentage damage caused to the plant, IPOHE (five-point scale)” value in assay [6] is reported as 1 (1=10-20%). For the same compound, the “percentage damage caused to the plant, five-point scale, ECHCG” value in assay [7] is given as 3 (3=41-60%). Also, in assay [8], the “percentage damage caused to the plant, five-point scale, SETFA” value is 4 (4=61-80%). Moreover, in assay [15], the “percentage damage caused to the plant, five-point scale, ZEAMX” value was 0 (0=0%). In assay [11], the “percentage damage caused to the plant, five-point scale, AMARE” value is on record as 0 (0=0%). In assay [16], the “percentage damage caused to the plant, five-point scale, ABUTH” value was 0 (0=0%). Moreover, in assay [12], the “percentage damage caused to the plant, five-point scale, IPOHE” value is reported as 0 (0=0%).

These data come from patent US20230250066A1, “HERBICIDAL CINNOLINE DERIVATIVES” (SYNGENTA CROP PROTECTION AG, priority 2020, published 2023).
